Literature values, collected in patent US20190256487A1, “HYDROXYN[…]” (BioPharmaWorks, LLC, priority 2016, published 2019).

Experiments:
[1] = mice
[2] = mice; remark: listed apart in the source

## N[C@@]1(c2ccccc2Cl)CCC[C@@H](O)C1=O [(2R,6R)-HNK, (2R,6R)-hydroxynorketamine]
[1]
  antidepressant actions: rapid and sustained antidepressant actions
[2]
  ketamine-related side effects: lacks ketamine-related side effects
